From patent publication US9624544B2, “Allelic disorders caused by mutations in TRPV4” (Northwestern University, priority 2009, dated 2017)

Key:
[1] = system: TRPV4 (wtTRPV4, TRPV4R269H, TRPV4R316C); test: Calcium imaging, internal Fura-2 fluorescence ratio (340/380), in transiently transfected HEK293 cells; type: cell-based, human; settings: for effect on [Ca2+]i (internal fluorescence ratio): WT-TRPV4, R269H and R316C transfected HEK293 cells
Experimental: The TRPV4 channel responds to a variety of stimuli (Nilius et al. Physiol Rev 87, 165-217 (2007); herein incorporated by reference in its entirety). To test the potential effects of the mutations on calcium channel activity, the calcium channel activity of transiently transfected HEK293 cells was analyzed using internal Fura-2 fluorescence ratio (340/380) as an indicator of the intracellular Ca2+ levels, which depend on Ca2+ influx. Calcium levels of the transfected cells were examined in response to various stimuli, including TRPV4-specific agonist 4α-phorbol 12, 13-didecanoate (4αPDD) (SEE FIG. 4), osmotic cell swelling (SEE FIG. 5), moderate heat (37° C.) (SEE FIG. 9) and endogenous agonist arachidonic acid (SEE FIG. 10). A consistent pattern of channel response to different stimuli was observed. […] The increased calcium channel activity was inhibited by TRPV antagonist ruthenium red.
Human embryonic kidney cells (HEK293) were grown on collagen-coated glass coverslips in Dulbecco's modified Eagle's medium containing 10% (v/v) human serum, 2 mM L-glutamine, 2 U/ml penicillin, and 2 […] at 37° C. in a humidity-controlled incubator with 5% CO2. The cells were transiently transfected with expression vectors, wild-type TRPV4, TRPV4^R316C or TRPV4^R269H using Lipofectamine 2000 (Invitrogen).
Intracellular free calcium concentration was measured using digital video microfluorimetry. Twenty-four hours after transfection, cells were rinsed briefly with HEPES buffer (120 mM NaCl, 5.4 mM KCl, 1.6 mM MgCl2, 1.8 mM CaCl2, 11 mM glucose, and 25 mM HEPES, pH 7.2), and loaded with 4 μM fura-2 AM (Molecular Probes) in HEPES buffer for 30 min at room temperature. […] The coverslips were then mounted on the stage of a Nikon Diaphot inverted epifluorescence microscope equipped for digital fluorescence microscopy. After excitation at 340 nm (Ca^2+-bound) and 380 nm (Ca^2+-free) fluorescence was digitally monitored at 520 nm. […] Values for Rmin and Rmax were determined by applying Ca^2+-free solution and high Ca^2+ containing solution in the presence of 5 μM ionomycin, respectively. […]

[2] = system: TRPV4 (wtTRPV4, TRPV4-R269H); test: Whole cell voltage clamp recordings of TRPV4 currents from transfected HEK293 cells; type: cell-based, human; settings: 20 μM ruthenium red in the bath; voltage ramp -100 to 100 mV; cells expressing wtTRPV4 or TRPV4-R269H
Experimental: The effect of the CMT2C-linked mutation (TRPV4R269H) on the electrophysiological properties of TRPV4 was examined. Whole-cell patch-clamp recordings were obtained from transiently transfected HEK293 cells.
Whole cell voltage clamp recordings were performed to HEK293 cells transiently transfected with wild-type or R269H TRPV4 cDNA. […] Similar GFP-fluorescent cells were selected for experiments. […] The series resistance was 4 to 14 MSΩ and was compensated between 65 and 75%. The extracellular solution consisted of (in mM): NaCl 100, KCl 6, MgCl2 2, CaCl2 1.5, Glucose 10, HEPES 10, pH 7.38 adjusted with NaOH, ˜315 mOsm adjusted with sucrose. Whole cell currents were recorded using an Axopatch 200B amplifier (Molecular Devices). Cells were held at −30 mV and currents were elicited by slow voltage ramps (from −100 mV to +100 mV, 0.6 sec duration), filtered at 5 KHz and sampled at 10 KHz. Drugs were bath-applied at a rate of ˜4 ml/min. The current density was determined by normalizing the current to the cell capacitance measured in voltage clamp using a −5 mV square pulse from a holding potential of −30 mV. Ruthenium red was prepared in a 20 mM stock solution (in water) and stored at 2-4° C. Working solutions were prepared freshly daily and were bath applied. After drug application the dish was discarded even if complete wash-out of the drug was obtained.

## CCCCCCCCCC(=O)O[C@@H]1[C@@H](C)[C@@]2(O)[C@@H](C=C(CO)C[C@@]3(O)C(=O)C(C)=C[C@@H]23)[C@@H]2C(C)(C)[C@]12OC(=O)CCCCCCCCC [4αPDD, 4α-phorbol 12, 13-didecanoate]
[1]; 4αPDD 2 μM
  effect on [Ca2+]i (internal fluorescence ratio): induced an increase in [Ca2+]i

## CCCCC/C=C\C/C=C\C/C=C\C/C=C\CCCC(=O)O [AA, arachidonic acid]
[1]; arachidonic acid 10 μM
  effect on [Ca2+]i (internal fluorescence ratio): induced an increase in [Ca^2+]i

## N.N.N.N.N.N.N.N.N.N.N.N.N.N.[Cl-].[Cl-].[Cl-].[Cl-].[Cl-].[Cl-].[O-2].[O-2].[Ru+3].[Ru+3].[Ru+4] [ruthenium red]
[2]
  effect on basal whole-cell currents: dramatically reduced the currents
[1]; ruthenium red 20 μM used to block the stimuli, transfected HEK293 cells
  effect on the increased calcium channel activity: inhibited
